The test system of test [1] is HL60 (human leukemia) cells. Description: Relative cell growth by cell count, HL60 cells (negative control line). In kind it is cell-based. The following applies: concentrations between 0 and 10 μM, after 10 days, effect with increased concentration. As for the experimental part:
(§1) FIGS. 12A-12D show a Western blot of an assay where MOLM 13 cells were treated with exemplary DOT1L degraders and then the cell numbers were counted over time to confirm the cellular activity of the cells. FIGS. 12A-12D show the relative cell growth (%), based on a cell count of acute myeloid leukemia cells upon the treatment of Molm13 PA cells, Molm13 RE cells, and human leukemia (HL60; as negative control) cells with exemplary DOT1L degraders at various concentrations in for 10 days.
(§2) Molm13 PA (acute myeloid leukemia), Molm13 RE (acute myeloid leukemia), and HL60 (human leukemia) cells were treated with exemplary thalidomide-based, DOT1L degrader compounds DOT1L-6, DOT1L-7, DOT1L-8, and RA190 at various concentrations between 0 and 10 μM. The relative cell growth of the Molm13 PA, Molm13 RE, and HL60 cells was measured to analyze cellular activity after 10 days.

Test [2] has as its system Molm13 PA and Molm13 RE (acute myeloid leukemia) cells. Description: Relative cell growth by cell count, Molm13 PA and Molm13 RE cells. In kind it is cell-based. Particulars: concentrations between 0 and 10 μM, after 10 days, effect with increased concentration. Here is the method: as §1, §2
The target of test [3] is RPN13 (Homo sapiens, UniProt Q16186). Description: Biochemical (alpha signal) assay for inhibitors that disrupt the binding of RPN13 with poly-ubiquitinylation. Particulars: FIG. 9C. The source says: The assay was optimized based on concentrations of the target inhibitors, concentrations of compound RA190, and in view of the alpha signal. The conditions for the biochemical assay are recognized by those of ordinary skill in the art.
RPN13, sequence (Q16186 whole entry): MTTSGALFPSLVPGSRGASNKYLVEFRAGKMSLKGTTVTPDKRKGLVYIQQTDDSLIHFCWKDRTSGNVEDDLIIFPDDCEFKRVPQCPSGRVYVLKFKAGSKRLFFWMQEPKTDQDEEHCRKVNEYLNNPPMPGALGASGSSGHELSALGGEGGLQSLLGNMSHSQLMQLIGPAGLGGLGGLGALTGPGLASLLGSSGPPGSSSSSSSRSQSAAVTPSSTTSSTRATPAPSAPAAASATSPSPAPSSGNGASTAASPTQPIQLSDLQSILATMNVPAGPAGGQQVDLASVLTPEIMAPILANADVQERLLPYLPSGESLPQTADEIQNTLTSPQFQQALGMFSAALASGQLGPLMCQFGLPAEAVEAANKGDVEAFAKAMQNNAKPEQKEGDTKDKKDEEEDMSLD

As for `N[C@@H](Cc1ccccc1)C(=O)N1C/C(=C\c2ccc(Cl)c(Cl)c2)C(=O)/C(=C/c2ccc(Cl)c(Cl)c2)C1` [RA190], the “Relative cell growth (based on cell count)” value in test [1] and in test [2] was “reduced cell growth” in each case. For the same molecule, the “Disruption of the binding of RPN13 with poly-ubiquitinylation” value in test [3] is given as “can disrupt the binding”.

Source of the values: patent publication US12331069B2, “DOT1L degraders and uses thereof” (DANA-FARBER CANCER INSTITUTE, INC., priority 2019, dated 2025).
